Measured values published in patent US12612416B2, “Modulators of cystic fibrosis transmembrane conductance regulator” (VERTEX PHARMACEUTICALS INCORPORATED, priority 2020, dated 2026).

Assays:
CFTR = CFTR (Homo sapiens, UniProt P13569); assay: standard Ussing Chamber Assay for CFTR potentiator activity; type: cell-based
Description: tert-Butyl N-[(6R,12R)-6-benzyloxy-12-methyl-6,15-bis(trifluoromethyl)-13,19-dioxa-3,4,18-triazatricyclo[12.3.1.12,5]nonadeca-1(18),2,4,14,16-pentaen-17-yl]-N-tert-butoxycarbonyl-carbamate (8.6 g, 11.77 mmol) was dissolved in ethanol (172 mL) then the flask was cycled 3 times between vacuum/nitrogen. Treated the mixture with 10% Pd/C (50% water wet, 1.8 g of 5% w/w, 0.8457 mmol) then cycled 3 times between vacuum/nitrogen and 3 times between vacuum/hydrogen and then stirred vigorously under hydrogen (balloon) at room temperature for 18 hours. The mixture was cycled 3 times between vacuum/nitrogen, filtered over Celite, washing with ethanol, and then the filtrate was evaporated to give 7.3 g of tert-butyl N-tert-butoxycarbonyl-N-[(6R,12R)-6-hydroxy-12-methyl-6,15-bis(trifluoromethyl)-13,19-dioxa-3,4,18-triazatricyclo[12.3.1.12,5]nonadeca-1(18),2,4,14,16-pentaen-17-yl]carbamate an off-white solid. 1H NMR and MS confirmed the expected product. CFTR modulating activity was confirmed using a standard Ussing Chamber Assay for CFTR potentiator activity.

[1] = molecular target: T1, CFTR-mediated short-circuit current in F508del/MF-HBE cells (Homo sapiens, UniProt P13569, DEL508-508); assay: HBE2 assay: Ussing chamber assay of CFTR-mediated short-circuit currents; type: cell-based; details: single fixed concentration 3 μM in combination with 44 nM (6R,12R)-17-amino-12-methyl-6,15-bis(trifluoromethyl)-13,19-dioxa-3,4,18-triazatricyclo[12.3.1.12,5]nonadeca-1(18),2,4,14,16-pentaen-6-ol, 20% human serum
T1 construct: endogenous in cells; host or cells: primary human bronchial epithelial cells from CF subjects (F508del/MF)
T1 sequence (P13569 with tags, fused parts or gaps DEL508-508): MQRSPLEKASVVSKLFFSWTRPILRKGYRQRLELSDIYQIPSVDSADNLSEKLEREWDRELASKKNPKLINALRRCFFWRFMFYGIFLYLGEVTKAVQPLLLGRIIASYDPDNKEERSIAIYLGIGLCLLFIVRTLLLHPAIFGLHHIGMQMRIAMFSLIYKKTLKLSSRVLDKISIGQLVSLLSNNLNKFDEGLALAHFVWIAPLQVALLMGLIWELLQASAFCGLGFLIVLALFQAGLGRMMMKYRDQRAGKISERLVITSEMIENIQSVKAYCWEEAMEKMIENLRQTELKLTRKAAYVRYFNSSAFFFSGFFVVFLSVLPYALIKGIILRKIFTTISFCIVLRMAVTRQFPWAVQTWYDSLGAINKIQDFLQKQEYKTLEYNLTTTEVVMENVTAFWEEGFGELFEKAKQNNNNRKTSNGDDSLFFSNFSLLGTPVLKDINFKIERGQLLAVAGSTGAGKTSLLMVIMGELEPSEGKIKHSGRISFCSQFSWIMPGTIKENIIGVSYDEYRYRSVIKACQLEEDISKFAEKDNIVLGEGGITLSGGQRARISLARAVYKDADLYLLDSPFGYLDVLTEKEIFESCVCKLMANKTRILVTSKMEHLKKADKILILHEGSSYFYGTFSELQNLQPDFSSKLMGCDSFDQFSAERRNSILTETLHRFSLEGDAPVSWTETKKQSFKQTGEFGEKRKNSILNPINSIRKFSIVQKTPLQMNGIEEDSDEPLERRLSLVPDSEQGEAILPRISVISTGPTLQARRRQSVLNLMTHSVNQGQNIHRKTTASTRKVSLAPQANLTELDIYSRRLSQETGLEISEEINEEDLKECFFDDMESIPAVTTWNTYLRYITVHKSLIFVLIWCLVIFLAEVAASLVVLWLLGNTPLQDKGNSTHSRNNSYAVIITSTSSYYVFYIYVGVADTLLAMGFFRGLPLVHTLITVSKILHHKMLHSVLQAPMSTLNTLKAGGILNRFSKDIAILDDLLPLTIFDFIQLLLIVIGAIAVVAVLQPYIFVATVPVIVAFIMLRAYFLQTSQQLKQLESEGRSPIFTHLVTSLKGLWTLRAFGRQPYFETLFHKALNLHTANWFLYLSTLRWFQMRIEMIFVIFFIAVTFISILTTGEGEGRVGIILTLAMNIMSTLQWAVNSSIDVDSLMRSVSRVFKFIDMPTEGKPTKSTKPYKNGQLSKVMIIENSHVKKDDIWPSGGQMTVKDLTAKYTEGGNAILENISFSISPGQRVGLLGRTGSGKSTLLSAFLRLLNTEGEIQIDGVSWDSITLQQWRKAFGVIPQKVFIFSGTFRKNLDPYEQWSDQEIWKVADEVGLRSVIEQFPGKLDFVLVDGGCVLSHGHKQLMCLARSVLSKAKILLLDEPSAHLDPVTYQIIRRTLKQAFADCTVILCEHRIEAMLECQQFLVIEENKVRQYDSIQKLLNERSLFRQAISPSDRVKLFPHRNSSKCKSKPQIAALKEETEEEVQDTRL
Description: Ussing chamber experiments were performed using human bronchial epithelial (HBE) cells derived from CF subjects heterozygous for F508del and a minimal function CFTR mutation (F508del/MF-HBE) and cultured as previously described (Neuberger T, Burton B, Clark H, Van Goor F Methods Mol Biol 2011:741:39-54). After four days the apical media was removed, and the cells were grown at an air liquid interface for >14 days prior to use.
To isolate the CFTR-mediated short-circuit (ISC) current, F508del/MF-HBE grown on Costar® Snapwell™ cell culture inserts were mounted in an Ussing chamber and the transepithelial ISC was measured under voltage-clamp recording conditions (Vhold=0 mV) at 37° C. The basolateral solution contained (in mM) 145 NaCl, 0.83K2HPO4, 3.3 KH2PO4, 1.2 MgCl2, 1.2 CaCl2), 10 Glucose, 10 HEPES (pH adjusted to 7.4 with NaOH) and the apical solution contained (in mM) 145 NaGluconate, 1.2 MgCl2, 1.2 CaCl2), 10 glucose, 10 HEPES (pH adjusted to 7.4 with NaOH) and 30 μM amiloride to block the epithelial sodium channel. […] The CFTR-mediated ISC (μA/cm^2) for each condition was determined from the peak forskolin response to the steady-state current following inhibition.
The activity of the CFTR corrector compounds on the CFTR-mediated ISC was determined in Ussing chamber studies as described above. […]

Sequence of CFTR (P13569 whole entry, species assumed): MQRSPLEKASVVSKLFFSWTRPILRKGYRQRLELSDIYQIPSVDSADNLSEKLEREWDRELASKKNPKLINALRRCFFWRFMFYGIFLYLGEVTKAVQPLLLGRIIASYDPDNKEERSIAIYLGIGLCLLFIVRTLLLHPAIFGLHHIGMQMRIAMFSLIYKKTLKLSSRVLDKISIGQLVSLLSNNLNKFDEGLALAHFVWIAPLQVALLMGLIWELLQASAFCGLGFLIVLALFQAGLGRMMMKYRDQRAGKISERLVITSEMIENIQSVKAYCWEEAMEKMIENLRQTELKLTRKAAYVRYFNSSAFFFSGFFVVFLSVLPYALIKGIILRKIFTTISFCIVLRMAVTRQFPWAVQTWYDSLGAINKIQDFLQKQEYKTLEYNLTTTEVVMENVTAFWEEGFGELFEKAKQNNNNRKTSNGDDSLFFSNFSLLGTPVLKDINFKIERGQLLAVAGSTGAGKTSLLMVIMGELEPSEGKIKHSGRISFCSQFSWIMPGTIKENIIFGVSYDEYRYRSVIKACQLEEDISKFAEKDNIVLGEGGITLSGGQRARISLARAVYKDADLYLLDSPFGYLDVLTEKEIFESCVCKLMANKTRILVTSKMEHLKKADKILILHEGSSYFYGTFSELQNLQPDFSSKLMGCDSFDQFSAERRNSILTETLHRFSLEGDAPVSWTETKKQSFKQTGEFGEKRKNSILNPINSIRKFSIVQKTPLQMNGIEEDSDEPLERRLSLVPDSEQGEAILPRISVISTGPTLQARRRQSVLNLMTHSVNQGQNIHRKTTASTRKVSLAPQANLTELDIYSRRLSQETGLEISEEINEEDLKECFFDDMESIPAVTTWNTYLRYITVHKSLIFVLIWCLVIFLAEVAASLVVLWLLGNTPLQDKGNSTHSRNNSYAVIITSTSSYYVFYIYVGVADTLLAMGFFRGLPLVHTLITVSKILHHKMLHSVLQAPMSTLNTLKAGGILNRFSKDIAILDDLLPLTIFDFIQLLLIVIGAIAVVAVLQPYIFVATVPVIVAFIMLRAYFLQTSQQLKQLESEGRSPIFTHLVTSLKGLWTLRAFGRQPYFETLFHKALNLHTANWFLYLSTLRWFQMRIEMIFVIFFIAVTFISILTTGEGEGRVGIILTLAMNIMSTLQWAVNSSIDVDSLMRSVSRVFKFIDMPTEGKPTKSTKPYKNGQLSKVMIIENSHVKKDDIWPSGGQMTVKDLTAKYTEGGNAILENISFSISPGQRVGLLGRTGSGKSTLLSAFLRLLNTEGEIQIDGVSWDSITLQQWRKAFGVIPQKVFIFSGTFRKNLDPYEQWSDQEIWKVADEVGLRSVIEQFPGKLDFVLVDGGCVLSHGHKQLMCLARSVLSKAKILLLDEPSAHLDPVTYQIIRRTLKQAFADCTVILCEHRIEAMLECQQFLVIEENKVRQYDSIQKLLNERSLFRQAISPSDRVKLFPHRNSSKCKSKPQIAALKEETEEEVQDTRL

C[C@@H]1CCCCC[C@](O)(C(F)(F)F)C2=NN=C(O2)c2nc(c(C(F)(F)F)cc2N)O1 [(6R,12R)-17-amino-12-methyl-6,15-bis(trifluoromethyl)-13,19-dioxa-3,4,18-triazatricyclo[12.3.1.12,5]nonadeca-1(18),2,4,14,16-pentaen-6-ol]
CFTR modulating activity (CFTR potentiator activity) (CFTR): confirmed

Cc1cccc(C)c1-c1cc2nc(n1)NS(=O)(=O)c1cccc(c1)C(=O)N(C1CC3(CC(NC(=O)OC(C)C)C3)C1)[C@H](CC(C)(C)C)CC2 (stereo partly drawn) [Compound 69]
HBE2 Activity at 3 μM [1]: +++ (+++ is >60%)

Cc1cccc(C)c1-c1cc2nc(n1)NS(=O)(=O)c1cccc(c1)C(=O)N(Cc1cncc(N(C)C3CCC3)n1)[C@H](CC(C)(C)C)CC2 [Compound 72]
HBE2 Activity at 3 μM [1]: +++ (+++ is >60%)
